Data set [1] has as its system HUVECs. In words: Nicotine-induced endothelial cell invasion. The data set is classed as cell-based, human. The settings on record: nicotine 10 nM. On the procedure: Serum-starved HUVECs were stimulated by nicotine (10 nM) in the presence or absence of voacangine. […] The basal level capillary tube formation (a) and invasiveness (b) of HUVECs that remained in serum-free media were normalized to 100%. To examine the invasiveness of HUVECs in vitro, we used a Transwell chamber system with 8.0-μm pore polycarbonate filter inserts. Briefly, the lower side of the filter was coated with gelatin (10 μL, 1 mg/mL) and the upper side was coated with Matrigel (10 μL, 3 mg/mL). […] The chamber was incubated at 37° C. for 18 h, and then the cells were fixed with 70% methanol and stained with hematoxylin and eosin. The invasiveness of cells was measured by counting the number of whole cells in the lower side of the filter using a microscope at 100× magnification, and cells were photographed at 100× magnification.

In data set [2] the test system is HUVECs. Description: Nicotine-induced tube formation of HUVECs. The settings on record: nicotine 10 nM. The data set is classed as cell-based, human. Here is the method: Serum-starved HUVECs were stimulated by nicotine (10 nM) in the presence or absence of voacangine. […] The basal level capillary tube formation (a) and invasiveness (b) of HUVECs that remained in serum-free media were normalized to 100%. Matrigel (10 mg/mL) was used to coat a 48-well plate and allowed to polymerize for 1 h at 37° C. HUVECs (6×10^4 cells) were seeded on the surface of the Matrigel, and then test compounds were added for 4-16 h at 37° C. in the presence or absence of VEGF (30 ng/mL). Morphological changes in the cells and formation of tubular structures were observed under a microscope (IX71, Olympus) and photographed at 100× magnification (DP70, Olympus).

The next data set concerns HT1080. In words: MTT cell proliferation assay, HT1080. It is filed as cell-based. The settings on record: Homo sapiens, HT-1080; HT1080, cancer cells. For orientation: Tetrazolium assays rely on reduction of a dye to a coloured formazan, in cell work by metabolically active cells.
Data set [3] has as its system HUVECs. Description: MTT cell proliferation assay, HUVECs. It is filed as cell-based, human. On the procedure:
(§1) Human umbilical vascular endothelial cells (HUVECs) were grown for 7-11 passages in EGM-2 medium supplemented with 10% FBS. HepG2 (human liver carcinoma) cells were grown in RPMI 1640 containing 10% FBS and 1% antibiotics. All cell lines were maintained at 37° C. in a humidified 5% CO2 incubator. Cell proliferation was measured using a 3-(4,5-dimethylthiazol-2-yl)-2,5-diphenyltetrazolium bromide (MTT) colorimetric assay, and cell viability was assessed using Trypan blue staining.

Another data set has as its system CHANG. Description: MTT cell proliferation assay, CHANG. The settings on record: normal cells. It is filed as cell-based.
The subject of data set [4] is chick embryo chorioallantoic membrane (CAM). In words: Chorioallantoic membrane (CAM) assay. It is filed as in vivo, chicken. On the procedure:
The CAM assay was performed as described previously. Fertilized chicken eggs were kept in a humidified incubator at 37° C. for 3 days. Approximately 2-3 mL of egg albumin was removed with a hypodermic needle, allowing the CAM and yolk sac to drop away from the shell membrane. […] After further incubation for 2 days, 2-3 mL of Intralipose (Greencross Co, Suwon, Korea) was injected beneath the CAM and the membrane was observed under a microscope. Retinoic acid (RA) was used as a positive control.

The next data set relates to capsaicin contraction. The settings on record: literature [9]; cited from earlier work.
A further data set relates to HeLa. In words: MTT cell proliferation assay, HeLa. It is filed as cell-based. The settings on record: Homo sapiens, cancer cells.
For another data set, the system named is HepG2. In words: MTT cell proliferation assay, HepG2. The data set is classed as cell-based. The settings on record: Homo sapiens; HepG2, cancer cells. Here is the method:
as §1

A further data set concerns HIF-1α. Description: Western blot of HIF-1α under hypoxic conditions. It is filed as cell-based, human. The settings on record: HepG2 cells during hypoxia. Here is the method: The cell lysates were separated by 10% SDS-PAGE, followed by transfer to PVDF membranes (Millipore, Bedford, Mass.) using standard electroblotting procedures. Blots were then blocked and immunolabeled overnight at 4° C. with primary antibodies, including anti-HIF-1α and anti-tubulin antibodies. Immunolabeling was detected by an enhanced chemiluminescence (ECL) kit (GE Healthcare, Buckinghamshire, UK) according to the manufacturer's instructions. For hypoxic conditions, cells were incubated at 5% CO2 with 1% O2 balanced with N2 in an anaerobic chamber (Forma).
(In western blotting, separated proteins are transferred to a membrane and probed.)

Another data set concerns VEGF. Description: Measurement of VEGF by ELISA. It is filed as cell-based, human. The settings on record: HepG2 cells. On the procedure:
The VEGF concentration in media from voacangine-treated cells was determined using a VEGF Immunoassay kit (R&D Systems, Minneapolis, Minn.) according to the manufacturer's instructions. The results were expressed as concentration of VEGF relative to the total amount of VEGF from each well.
In general terms: ELISA stands for enzyme-linked immunosorbent assay.

Data set [5] relates to HUVECs. Description: In vitro tumor cell-induced angiogenesis assay (combinated-chemoinvasion assay). The data set is classed as cell-based, human. The settings on record: HepG2 in lower chamber, without VEGF. Here is the method: To examine the invasive activity of […], a Transwell chamber system with 8.0-μm pore polycarbonate filter inserts was used. Briefly, the lower side of the filter was coated with gelatin (10 μL, 1 mg/mL) and the upper side was coated with Matrigel (10 μL, 3 mg/mL). Next, tumor cell HepG2 was added to the lower chamber. Test compounds were added to the lower chamber without VEGF and HUVECs (7×10^5 cells) were placed in the upper chamber of the filter. The chamber was incubated at 37° C. for 18 h, and then the cells were fixed with 70% methanol and stained with hematoxylin and eosin. Invasiveness was measured by counting the number of whole cells on the lower side of the filter using a microscope at 100× magnification, and cells were photographed at 100× magnification.

The test system of data set [6] is HUVECs. Description: Capillary tube formation assay (VEGF-induced). It is filed as cell-based, human. The settings on record: VEGF 30 ng/mL, serum-starved HUVECs. Here is the method: Matrigel (10 mg/mL) was used to coat a 48-well plate and allowed to polymerize for 1 h at 37° C. HUVECs (6×10^4 cells) were seeded on the surface of the Matrigel, and then test compounds were added for 4-16 h at 37° C. in the presence or absence of VEGF (30 ng/mL). Morphological changes in the cells and formation of tubular structures were observed under a microscope (IX71, Olympus) and photographed at 100× magnification (DP70, Olympus).

Data set [7] deals with HUVECs. In words: Trypan blue cell viability. The settings on record: doses up to 20 μM for 3 days.
Data set [8] concerns HUVECs. In words: Chemoinvasion assay (VEGF-induced). It is filed as cell-based, human. The settings on record: VEGF 30 ng/mL, serum-starved HUVECs. On the procedure:
To examine the invasiveness of HUVECs in vitro, we used a Transwell chamber system with 8.0-μm pore polycarbonate filter inserts. Briefly, the lower side of the filter was coated with gelatin (10 μL, 1 mg/mL) and the upper side was coated with Matrigel (10 μL, 3 mg/mL). Test compounds were added to the lower chamber in the presence of VEGF (30 ng/mL), and HUVECs (7×10^5 cells) were placed in the upper chamber of the filter. The chamber was incubated at 37° C. for 18 h, and then the cells were fixed with 70% methanol and stained with hematoxylin and eosin. The invasiveness of cells was measured by counting the number of whole cells in the lower side of the filter using a microscope at 100× magnification, and cells were photographed at 100× magnification.

The values below come from US10478440B2, “Pharmaceutical compositions for inhibiting angiogenesis comprising plant-derived natural compound” (INDUSTRY-ACADEMIC COOPERATION FOUNDATION, YONSEI UNIVERSITY, priority 2011, dated 2019).

pIC50: −log10 of the molar value.

For orientation: pIC50 means the IC50 on a negative log10 scale, so that one unit is a factor of ten. Higher therefore signals a low IC50.

Take `CN1CCCC1c1cccnc1` (stereo not drawn) [nicotine, reference compound]: in the data set with HUVECs [1] (serum-starved HUVECs), the “increase of cell invasion activity” value is reported as 2.0 fold. Further, the “increase of angiogenesis (tube formation) activity” value in the data set on HUVECs [2] (serum-starved HUVECs) is on record as 2.5 fold.
Turning to `CC[C@H]1C[C@@H]2CN3CCc4c([nH]c5ccc(OC)cc45)[C@](C(=O)OC)(C2)C13` [voacangine, 12-methoxyibogamine-18-carboxylic acid methyl ester], the pIC50 in the data set on HT1080 is 4.48; with HUVECs [3] (Homo sapiens, HUVEC, HUVECs, normal cells), 4.74; in the data set on CHANG it was 4.59; with HeLa, 4.64; in the data set with HepG2, 4.38. Moreover, the cell growth entry in the data set with HUVECs [3] (10 μM, 3 days, MTT) is “inhibited cell growth”. Also, the “growth inhibition on HUVECs versus other cell lines” value in the data set with HUVECs [3] (compared with other normal and cancer cell lines (Table 1)) is “greater growth inhibition effect on HUVECs than on other normal and cancer cell lines”. The “capillary formation during CAM development” value in data set [4] (2 and 4 μg/egg, 2 days) was “dose-dependently inhibited capillary formation”. The “signs of thrombosis or hemorrhage in CAM” value in data set [4] (2 days treatment) is “no apparent signs of thrombosis or hemorrhage”. In addition, the “nicotine-induced invasion of HUVECs” value with HUVECs [1] was “inhibit nicotine-induced angiogenesis and invasion of HUVECs in a dose-dependent manner”. In addition, the capsaicin contraction result in the data set on capsaicin contraction is “inhibit capsaicin contraction in a dose-dependent manner”. Besides, in the data set on HIF-1α, the “expression level of HIF-1α” value was “dose-dependently reduced”. Besides, the “synthesis of cyclin D1 and tubulin” value with HIF-1α (Western blot) is “without inhibiting the synthesis of other proteins”. Besides, in the data set on VEGF, the “hypoxia-induced expression of VEGF” value is “inhibited the hypoxia-induced expression of VEGF”. In addition, the “tumor cell-induced invasiveness of HUVECs by hypoxia” value with HUVECs [5] is “dose-dependently inhibited”. The VEGF-induced tube formation result with HUVECs [6] is “inhibited VEGF-induced tube formation in a dose-dependent manner”. Moreover, in the data set on HUVECs [7], the “cytotoxicity on HUVECs (trypan blue exclusion)” value was “no cytotoxicity”. Further, the “VEGF-induced invasiveness of HUVECs” value in the data set on HUVECs [8] is reported as “inhibited the VEGF-induced enhanced invasiveness of HUVECs in a dose-dependent manner”. Moreover, in the data set with HUVECs [2], the “nicotine-induced angiogenesis (tube formation)” value is “inhibit nicotine-induced angiogenesis”.
